Source: publication PMC7925357 (European journal of medicinal chemistry, 2020)
Like-named read-outs stand apart in the source and are kept apart here. Each block holds one molecule with its values, some of them ahead of it.

What was measured:
[1] = test system: hM3; conditions: read-out: hM3 EC50; selectivity versus native hM3; cited from earlier work
[2] = biological target: T1, hM3Dq (Homo sapiens, UniProt P20309, A239G/Y149C); conditions: read-out: hM3Dq EC50; DREADD agonist; cited from earlier work
[3] = biological target: T1, hM3Dq; test: PET imaging with [18F]7b in transgenic mice expressing hM3Dq; type: in vivo, mouse
[4] = biological target: T1, hM3Dq; test: [3H]CLZ competition binding, membranes of HEK293 cells transfected with hM3Dq
[5] = biological target: T2, hM4Di (Homo sapiens, UniProt P08173, A203G/Y113C); test: [3H]CLZ competition binding, membranes of HEK293 cells transfected with hM4Di
T2 sequence (P08173 1-479 Y113C/A203G): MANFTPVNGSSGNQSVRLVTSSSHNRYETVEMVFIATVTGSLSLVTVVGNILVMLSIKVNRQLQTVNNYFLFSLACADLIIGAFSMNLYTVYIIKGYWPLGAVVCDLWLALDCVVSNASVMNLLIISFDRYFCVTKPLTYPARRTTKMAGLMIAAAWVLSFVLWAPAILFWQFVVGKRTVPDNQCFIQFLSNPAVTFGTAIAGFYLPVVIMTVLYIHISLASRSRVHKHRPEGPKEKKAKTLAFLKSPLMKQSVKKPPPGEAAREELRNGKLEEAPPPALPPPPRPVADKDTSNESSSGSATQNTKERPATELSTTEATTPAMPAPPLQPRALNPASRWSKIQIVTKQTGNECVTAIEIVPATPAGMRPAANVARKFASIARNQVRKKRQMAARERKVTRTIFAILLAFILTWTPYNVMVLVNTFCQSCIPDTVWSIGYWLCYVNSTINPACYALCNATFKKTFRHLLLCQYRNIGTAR

[6] = biological target: T2, hM4Di; conditions: read-out: Ki, nM hM4Di; printed without SD; cited from earlier work
[7] = biological target: T1, hM3Dq; conditions: read-out: Ki, nM hM3Dq; printed without SD; cited from earlier work
[8] = biological target: T1, hM3Dq; conditions: hM3Dq Tg mice; cited from earlier work
[9] = test system: wild-type mouse brain; test: PET imaging with [18F]7b in wild-type mouse; conditions: wild-type mouse lacking DREADD expression
[10] = at 50–60 min after injection, transgenic hM3Dq mice
[11] = baseline, cerebellum as reference tissue

T1 sequence (P20309 whole entry Y149C/A239G): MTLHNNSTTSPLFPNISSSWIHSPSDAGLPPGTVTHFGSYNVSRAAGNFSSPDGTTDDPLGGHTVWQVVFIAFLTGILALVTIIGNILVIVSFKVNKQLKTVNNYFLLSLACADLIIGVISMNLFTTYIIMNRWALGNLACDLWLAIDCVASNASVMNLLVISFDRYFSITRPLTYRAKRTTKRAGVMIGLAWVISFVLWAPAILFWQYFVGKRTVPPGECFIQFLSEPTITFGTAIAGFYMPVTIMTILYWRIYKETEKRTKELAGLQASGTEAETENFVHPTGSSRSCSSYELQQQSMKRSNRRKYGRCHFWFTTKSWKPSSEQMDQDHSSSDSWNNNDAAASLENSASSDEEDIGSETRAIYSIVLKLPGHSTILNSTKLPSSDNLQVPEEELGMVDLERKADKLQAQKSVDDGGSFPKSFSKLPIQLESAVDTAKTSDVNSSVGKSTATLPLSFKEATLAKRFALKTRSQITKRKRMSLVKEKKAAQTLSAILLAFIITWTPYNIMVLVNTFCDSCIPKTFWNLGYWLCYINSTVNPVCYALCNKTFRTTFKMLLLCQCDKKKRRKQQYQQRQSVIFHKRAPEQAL

Compound: CCN1CCN(C2=Nc3cc(Cl)ccc3Nc3ccccc32)CC1 [Compound 1, 8-chloro-11-(4-ethylpiperazin-1-yl)-5H-dibenzo[b,e][1,4]diazepine]
- EC50 [1]: > 30000 nM
- EC50 [2]: 1.3 nM

Compound: CCN1CCN(C2=Nc3cc(Cl)ccc3Nc3c(F)cccc32)CC1 [Compound 7d, 8-Chloro-11-(4-ethylpiperazin-1-yl)-4-fluoro-5H-dibenzo[b,e][1,4]diazepine]
- blocking effect on [18F]7b in the cerebellum ([3]; 7d as blocker, dose escalation): insignificant
- blocking of [18F]7b binding potential in the cortex versus baseline ([3]; 7d as blocker, dose escalation up to 0.5 mg/kg): significant only at the highest dose of blocker

- Ki [4]: 8.1 ± 0.9 nM
- Ki [5]: 18.1 ± 5.4 nM
Compound: CCN1CCN(C2=Nc3cc(Cl)ccc3Nc3c(F)cc(F)cc32)CC1 [Compound 7h, 8-Chloro-11-(4-ethylpiperazin-1-yl)-2,4-difluoro-5H-dibenzo[b,e][1,4]diazepine]

Compound: CN1CCN(C2=Nc3ccccc3Nc3ccccc32)CC1 [DCZ, deschloroclozapine]
- Ki [6]: 4.2 nM
- Ki [7]: 6.3 nM

Compound: [11CH3]N1CCN(C2=Nc3ccccc3Nc3ccccc32)CC1 [[^11C]DCZ, [^11C]deschloroclozapine]
- STR/CB ratio value [8]: 2.7

Compound: CCN1CCN(C2=Nc3ccccc3Nc3ccc([18F])cc32)CC1 [[^18F]7b, 11-(4-Ethylpiperazin-1-yl)-2-[^18F]fluoro-5H-dibenzo[b,e][1,4]diazepine]
- maximum ratio of tissue to cerebellum, cortex [3, 10]: 1.8
- maximum ratio of tissue to cerebellum, striatum [3, 10]: 3.0
- binding potential BPND, cortex [3, 11]: 0.6
- binding potential BPND, striatum [3, 11]: 1.6
- highest accumulation of radioactivity in the striatum (SUV) ([3]; baseline, striatum, mean ± SD of 3, transgenic hM3Dq mice): 1.93 ± 0.33 SUV
- accumulation of radioactivity in the brain [9]: low accumulation of radioactivity in the brain
